Among the data in publication PMC8497156, “Complexed Crystal Structure of Saccharomyces cerevisiae Dihydroorotase with Inhibitor 5-Fluoroorotate Reveals a New Binding Mode” (Bioinorganic Chemistry and Applications, 2021) are Kd values, retold here.

Each structure is given as a SMILES string.

Holding throughout (format): binding
For experiment [1], the target named is T1, dihydroorotase (ScDHOase-T106A) (Saccharomyces cerevisiae, UniProt P20051, T106A).
T1 construct: gene URA4
In words: intrinsic fluorescence quenching titration.

For experiment [2], the target named is T2, dihydroorotase (ScDHOase-R18A) (Saccharomyces cerevisiae, UniProt P20051, R18A).
T2 construct: gene URA4
In words: intrinsic fluorescence quenching titration.

For experiment [3], the target named is T3, dihydroorotase (ScDHOase) (Saccharomyces cerevisiae, UniProt P20051).
T3 construct: gene URA4
T3 sequence (P20051 1-364): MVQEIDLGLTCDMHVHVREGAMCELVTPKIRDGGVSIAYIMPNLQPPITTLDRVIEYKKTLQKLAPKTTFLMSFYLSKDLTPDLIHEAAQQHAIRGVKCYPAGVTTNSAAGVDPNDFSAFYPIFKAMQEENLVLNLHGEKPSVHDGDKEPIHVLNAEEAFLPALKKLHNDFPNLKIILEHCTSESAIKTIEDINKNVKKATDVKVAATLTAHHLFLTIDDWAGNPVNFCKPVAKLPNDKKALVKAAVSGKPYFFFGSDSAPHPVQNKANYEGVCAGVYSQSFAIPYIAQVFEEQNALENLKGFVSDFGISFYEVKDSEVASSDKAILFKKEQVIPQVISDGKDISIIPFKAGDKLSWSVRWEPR
In words: Kd by intrinsic fluorescence quenching.

T2 sequence (P20051 whole entry R18A): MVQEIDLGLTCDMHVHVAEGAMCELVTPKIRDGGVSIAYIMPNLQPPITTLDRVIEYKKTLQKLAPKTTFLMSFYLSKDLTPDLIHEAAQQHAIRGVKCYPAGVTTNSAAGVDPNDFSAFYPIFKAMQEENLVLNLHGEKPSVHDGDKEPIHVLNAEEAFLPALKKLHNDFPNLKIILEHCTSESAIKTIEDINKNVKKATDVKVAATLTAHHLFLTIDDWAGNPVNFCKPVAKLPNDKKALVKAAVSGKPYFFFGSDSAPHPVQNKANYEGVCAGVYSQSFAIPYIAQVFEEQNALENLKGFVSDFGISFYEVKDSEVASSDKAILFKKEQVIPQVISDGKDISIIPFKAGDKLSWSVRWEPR
T1 sequence (P20051 whole entry T106A): as the sequence (P20051 whole entry R18A) above, with A18R, T106A counted along it

On to `O=C(O)c1[nH]c(=O)[nH]c(=O)c1F` [5-FOA, 5-fluoroorotate], for which the Kd (as a rule, the free concentration of one partner at which half of the binding sites on the other are occupied at equilibrium, for simple one-to-one binding) in experiment [1] worked out at 115 ± 3.7 µM; in experiment [2], 144 ± 2.1 µM; in experiment [3], 83.8 ± 1.5 µM.
